Source: DBAASP
Values after ≈ are worked out from the molar mass of the structure shown. Values belong to the compound of their own block, whether it stands above or below them.

What was measured:
Test in all cases: ≥ marks a high value that may be exact or a test limit, other limits are often not marked, values filed in µg/mL are converted to µM
[1] = tested on: Escherichia coli DH5alpha
[2] = tested on: Staphylococcus aureus NBRC 13276
[3] = tested on: Pseudomonas aeruginosa NBRC 13275
[4] = tested on: Pseudomonas aeruginosa ATCC 27853
Escherichia coli ESBL 4 = tested on: Escherichia coli ESBL 4
[5] = tested on: Escherichia coli ATCC 11775
[6] = tested on: Escherichia coli ATCC 43827
[7] = tested on: Escherichia coli ATCC 35218
[8] = tested on: Escherichia coli ATCC 25922
Escherichia coli ESBL = tested on: Escherichia coli ESBL
[9] = tested on: Candida albicans ATCC 90028
[10] = tested on: Cryptococcus neoformans var. grubii H99
[11] = tested on: Staphylococcus aureus JE2
[12] = tested on: Staphylococcus aureus ATCC 43300
Escherichia coli K-12 = tested on: Escherichia coli K-12
[13] = tested on: Klebsiella pneumoniae ATCC 700603
[14] = tested on: Acinetobacter baumannii ATCC 19606
[15] = tested on: Staphylococcus epidermidis
[16] = tested on: Salmonella enterica serovar Typhimurium
[17] = tested on: Pseudomonas aeruginosa PAO1
Escherichia coli UB1005 = tested on: Escherichia coli UB1005
[18] = tested on: Enterococcus faecalis ATCC 29212
[19] = tested on: Pseudomonas aeruginosa 919
[20] = tested on: Pseudomonas aeruginosa 253
[21] = tested on: Staphylococcus aureus ATCC 25923
[22] = tested on: Pseudomonas aeruginosa 910
Candida albicans = tested on: Candida albicans
[23] = tested on: Pseudomonas aeruginosa H103
[24] = tested on: Candida tropicalis CGMCC 2.1975
[25] = tested on: Lactiplantibacillus plantarum 8014
[26] = tested on: Staphylococcus epidermidis ATCC 12228
[27] = tested on: Candida parapsilosis CGMCC 2.3989
[28] = tested on: Staphylococcus aureus ATCC 29213
[29] = tested on: Lacticaseibacillus rhamnosus 7469
[30] = tested on: Candida albicans CGMCC 2.2086

SMILES: CC(=O)N[C@@H](C)C(=O)N[C@@H](CCCCN)C(=O)N[C@@H](CCCCN)C(=O)N[C@@H](Cc1ccccc1)C(=O)NCC(=O)N[C@@H](CCCCN)C(=O)N[C@@H](C)C(=O)N[C@@H](Cc1ccccc1)C(=O)N[C@H](C(N)=O)C(C)C [AKKFGKAFV]
MIC [1]: ≥ 200 µM | MIC [2]: ≥ 400 µM | MIC [3]: ≥ 200 µM

SMILES: CC[C@H](C)[C@H](NC(=O)[C@@H](NC(=O)[C@H](CO)NC(=O)[C@H](C)NC(=O)[C@@H](NC(=O)[C@H](CCCCN)NC(=O)[C@H](CCCCN)NC(=O)[C@@H](NC(=O)[C@@H](NC(=O)[C@H](CC(=O)O)NC(=O)[C@H](Cc1c[nH]c2ccccc12)NC(=O)[C@H](CC(C)C)NC(=O)CN)C(C)C)[C@@H](C)CC)C(C)C)C(C)C)C(=O)NCC(=O)NCC(=O)N[C@@H](CC(C)C)C(=O)O [GLWDVIKKVASVIGGL]
MIC [4]: > 19.3 µM | MIC [9]: 19.3 µM (≈ 32 µg/mL) | MIC [10]: 4.83 µM (≈ 8 µg/mL) | MIC [11]: 4.83 µM (≈ 8 µg/mL) | MIC [12]: 2.42 µM (≈ 4 µg/mL) | MIC (Escherichia coli K-12): 9.67 µM (≈ 16 µg/mL) | MIC [13]: > 19.3 µM | MIC [8]: > 19.3 µM | MIC [14]: 9.67 µM (≈ 16 µg/mL)

SMILES: CC[C@H](C)[C@H](NC(=O)[C@@H](NC(=O)[C@H](CO)NC(=O)[C@H](C)NC(=O)[C@@H](NC(=O)[C@H](CCCCN)NC(=O)[C@H](CCCN=C(N)N)NC(=O)[C@@H](NC(=O)[C@@H](NC(=O)[C@H](CCCN=C(N)N)NC(=O)[C@H](Cc1c[nH]c2ccccc12)NC(=O)[C@H](CC(C)C)NC(=O)CN)C(C)C)[C@@H](C)CC)C(C)C)C(C)C)C(=O)NCC(=O)NCC(=O)N[C@@H](CC(C)C)C(=O)O [GLWRVIRKVASVIGGL]
MIC [4]: > 18.6 µM | MIC [9]: 18.6 µM (≈ 32 µg/mL) | MIC [10]: 1.16 µM (≈ 2 µg/mL) | MIC [11]: 9.28 µM (≈ 16 µg/mL) | MIC [12]: 2.32 µM (≈ 4 µg/mL) | MIC (Escherichia coli K-12): 18.6 µM (≈ 32 µg/mL) | MIC [13]: 4.64 µM (≈ 8 µg/mL) | MIC [8]: 2.32 µM (≈ 4 µg/mL) | MIC [14]: 1.16 µM (≈ 2 µg/mL)

SMILES: CC[C@H](C)[C@H](NC(=O)[C@@H](N)Cc1ccccc1)C(=O)N[C@@H](CCCCN)C(=O)N[C@@H](Cc1c[nH]c2ccccc12)C(=O)N[C@@H](CCCN=C(N)N)C(=O)N[C@@H](CO)C(=O)N[C@@H](CCCN=C(N)N)C(=O)N[C@@H](Cc1c[nH]c2ccccc12)C(=O)N[C@@H](Cc1c[nH]c2ccccc12)C(=O)N[C@@H](CCCCN)C(=O)N[C@@H](CCCCN)C(=O)N[C@@H](CCCN=C(N)N)C(=O)N[C@H](C(N)=O)[C@@H](C)O [FIKWRSRWWKKRT]
MIC [17]: 4 µM (≈ 7.51 µg/mL) | MIC [19]: ≥ 32 µM | MIC [20]: 16 µM (≈ 30 µg/mL) | MIC [22]: 8 µM (≈ 15 µg/mL)

More lines, main results first:

MIC [4]: 100 µM (≈ 215 µg/mL) | MIC (Escherichia coli ESBL 4): ≥ 100 µM | MIC [5]: ≥ 100 µM | MIC [6]: 3 µM (≈ 6.44 µg/mL) | MIC [7]: 6 µM (≈ 12.9 µg/mL) | MIC [8]: 25 µM (≈ 53.6 µg/mL) | MIC (Escherichia coli ESBL): 12.5 µM (≈ 26.8 µg/mL)
SMILES: CC[C@H](C)[C@H](NC(=O)[C@H](Cc1ccc(O)cc1)NC(=O)[C@H](CCC(N)=O)NC(=O)[C@H](CC(C)C)NC(=O)[C@H](C)NC(=O)[C@H](CCCCN)NC(=O)[C@H](CCCCN)NC(=O)[C@H](CCSC)NC(=O)[C@H](CCCCN)NC(=O)[C@H](CCCCN)NC(=O)[C@H](CCCCN)NC(=O)[C@@H](N)CCCN=C(N)N)C(=O)N[C@@H](CCCCN)C(=O)N[C@@H](CC(C)C)C(=O)N[C@@H](CC(C)C)C(=O)N[C@@H](CCCCN)C(=O)N[C@@H](CCC(=O)O)C(N)=O [RKKKMKKALQYIKLLKE]

MIC [15]: 1.37 µM (≈ 2 µg/mL) | MIC [16]: 5.46 µM (≈ 7.99 µg/mL) | MIC [17]: 32 µM (≈ 46.8 µg/mL) | MIC (Escherichia coli UB1005): 2.73 µM (≈ 4 µg/mL) | MIC [18]: 10.9 µM (≈ 16 µg/mL) | MIC [19]: 16 µM (≈ 23.4 µg/mL) | MIC [20]: ≥ 32 µM | MIC [21]: 10.9 µM (≈ 16 µg/mL) | MIC [22]: ≥ 32 µM | MIC (Candida albicans): 5.46 µM (≈ 7.99 µg/mL) | MIC [23]: 5.46 µM (≈ 7.99 µg/mL)
SMILES: CC[C@H](C)[C@H](NC(=O)[C@H](CCCN=C(N)N)NC(=O)[C@H](C)NC(=O)[C@H](CCCN=C(N)N)NC(=O)[C@@H](N)CCCN=C(N)N)C(=O)N[C@H](C(=O)N[C@H](C(=O)N[C@H](C(=O)N[C@@H](CCCN=C(N)N)C(=O)N[C@H](C(=O)N[C@@H](C)C(=O)N[C@@H](CCCN=C(N)N)C(N)=O)C(C)C)[C@@H](C)CC)C(C)C)C(C)C [RRARIVVIRVAR]

MIC [4]: > 100 µM | MIC (Escherichia coli ESBL 4): ≥ 100 µM | MIC [5]: ≥ 100 µM | MIC [6]: 25 µM (≈ 43.3 µg/mL) | MIC [7]: 25 µM (≈ 43.3 µg/mL) | MIC [8]: 100 µM (≈ 173 µg/mL) | MIC (Escherichia coli ESBL): ≥ 100 µM
SMILES: CC[C@H](C)[C@H](NC(=O)[C@H](Cc1ccc(O)cc1)NC(=O)[C@H](CCC(N)=O)NC(=O)[C@H](CC(C)C)NC(=O)[C@H](C)NC(=O)[C@H](CCCCN)NC(=O)[C@H](CCCCN)NC(=O)[C@H](CCSC)NC(=O)[C@@H](N)CCCCN)C(=O)N[C@@H](CCCCN)C(=O)N[C@@H](CC(C)C)C(=O)N[C@@H](CC(C)C)C(=O)N[C@@H](CCCCN)C(=O)N[C@@H](CCC(=O)O)C(N)=O [KMKKALQYIKLLKE]

MIC [24]: 1 µM (≈ 2.68 µg/mL) | MIC [26]: > 64 µM | MIC [27]: 2 µM (≈ 5.36 µg/mL) | MIC [21]: > 64 µM | MIC [28]: > 64 µM | MIC [29]: ≥ 64 µM | MIC [30]: 2 µM (≈ 5.36 µg/mL)
SMILES: CC[C@H](C)[C@H](N)C(=O)N[C@@H](Cc1cnc[nH]1)C(=O)N[C@@H](Cc1cnc[nH]1)C(=O)N[C@H](C(=O)N[C@@H](Cc1cnc[nH]1)C(=O)N[C@@H](Cc1cnc[nH]1)C(=O)N[C@H](C(=O)N[C@H](C(=O)N[C@@H](Cc1cnc[nH]1)C(=O)N[C@@H](Cc1cnc[nH]1)C(=O)N[C@H](C(=O)N[C@@H](Cc1cnc[nH]1)C(=O)N[C@@H](Cc1cnc[nH]1)C(=O)N[C@H](C(=O)N[C@H](C(=O)N[C@@H](Cc1cnc[nH]1)C(=O)N[C@@H](Cc1cnc[nH]1)C(=O)N[C@H](C(=O)N[C@@H](Cc1cnc[nH]1)C(=O)N[C@@H](Cc1cnc[nH]1)C(=O)N[C@H](C(N)=O)[C@@H](C)CC)[C@@H](C)CC)[C@@H](C)CC)[C@@H](C)CC)[C@@H](C)CC)[C@@H](C)CC)[C@@H](C)CC)[C@@H](C)CC [IHHIHHIIHHIHHIIHHIHHI]
MIC [25]: ≥ 64 µM
